Counter-ions that a name gives are not always drawn.
Target: T1, Human Histamine H3 Receptor (Homo sapiens, UniProt Q9Y5N1)
T1 construct: expressed in transfected cells; host or cells: HEK293T (stably transfected; membrane preparation)
Assay: Methyl histamine binding in Human Histamine H3 Receptor Cell Line
Conditions: read-out: hH3 Binding Ki
Description: Evaluation of Methyl histamine binding in Human Histamine H3 Receptor Cell Line
The affinity of test compounds for the histamine 3 (H3) receptor is evaluated in the following manner. […] Cells are scraped from the plate, transferred to centrifuge tubes, washed one time in PBS by centrifugation in a Sorvall RT7 Plus centrifuge (2000 rpm 10 minutes, 4° C.). The resulting pellets are stored at −80° C. until ready for use. Cells are re-suspended in buffer (50 mM Tris pH=7.5) and placed in a Dounce homogenizer, douncing ten times to homogenize cells. The homogenate is spun down by centrifugation (Sorvall RT7 Plus, 1800 rpm 10 minutes, 4° C.). The supernatant is placed in a Corex tube and spun down by centrifugation (Sorvall RC 5c Plus, 17,000 rpm 20 minutes, 4° C.). The pellet is resuspended in buffer (50 mM Tris, pH 7.5). Protein concentration (ug/ul) is determined using the Micro-BCA Protein Determination. The binding assay is set up in a 96 well microtiter plate in a total volume of 250 uL. Non-specific binding is determined in the presence of 10 uM clobenpropit. The final radioligand concentration is 1 nM. The test compound is serially diluted using the Beckman Biomek2000 to a final approximate range of 100 uM to 100 pM. Membranes are suspended in buffer, homogenized in 2 bursts of ten seconds using a Vitris mechanical homogenizer set at power setting 5. Ten μg of membranes are added to each well. Following a one hour incubation at 30° C., the reaction is terminated by the addition of ice cold buffer and rapid filtration with a Packard Filtermate Harvester through a GF/B filter pre-soaked with 1% PEI for one hour. The plate is dried for one hour at 37° C. and 60 μL Microscint Scintillant is added to each well. The CPM per well is measured on a Packard Top Count NXT. Ki values are determined in nM. […] CPM values are expressed as % specific binding and plotted vs compound concentration. A curve is fitted using a four-parameter logistic fit and the IC50 value is determined. The Ki is calculated from this using the Cheng-Prusoff equation: […]=IC50/1+(L/Kd) where L=concentration of free radioligand used in the assay, and Kd is the dissociation constant of the radioligand for the receptor. L is determined for each experiment by counting an aliquot of the diluted radioligand (corresponding to that added to each well) and the Kd has previously been determined under identical conditions for this cell line/radioligand.

T1 sequence (Q9Y5N1 whole entry): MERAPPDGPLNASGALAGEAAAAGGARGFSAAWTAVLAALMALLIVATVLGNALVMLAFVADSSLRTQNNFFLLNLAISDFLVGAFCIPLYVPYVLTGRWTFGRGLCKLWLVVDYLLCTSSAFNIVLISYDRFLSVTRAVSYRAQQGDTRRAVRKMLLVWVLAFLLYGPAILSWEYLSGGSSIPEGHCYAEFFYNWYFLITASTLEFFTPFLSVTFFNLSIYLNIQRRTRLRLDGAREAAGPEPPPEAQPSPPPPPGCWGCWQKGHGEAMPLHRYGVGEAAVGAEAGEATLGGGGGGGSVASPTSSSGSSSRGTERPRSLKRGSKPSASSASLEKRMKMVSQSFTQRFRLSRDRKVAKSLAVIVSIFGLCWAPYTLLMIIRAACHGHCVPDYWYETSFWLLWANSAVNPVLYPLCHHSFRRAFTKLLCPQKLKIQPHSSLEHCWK

Compared with Cc1nc2ccccc2n1-c1ccc(C(=O)N(C)C2CCNCC2)cc1 [Example 30, N-Methyl-4-(2-methylbenzimidazol-1-yl)-N-piperidin-4-yl-benzamide Hydrochloride], Cc1nc2ccccc2n1-c1ccc(C(=O)N(C)C2CCN(C(C)C)CC2)cc1 [Example 31, N-(1-isopropylpiperidin-4-yl)-N-methyl-4-(2-methyl-1H-benzimidazol-1-yl)benzamide] is lower in Ki: > 100 nM for the first, ≤ 10 nM for the second.

Going from Cc1nc2ccccc2n1-c1ccc(C(=O)N(C)C2CCN(C3CCCC3)CC2)cc1 [Example 32, N-(1-cyclopentylpiperidin-4-yl)-N-methyl-4-(2-methyl-1H-benzimidazol-1-yl)benzamide] to Cc1nc2ccccc2n1-c1ccc(C(=O)N(C)C2CCN(C3CCCCC3)CC2)cc1 [Example 33, N-(1-cyclohexylpiperidin-4-yl)-N-methyl-4-(2-methyl-1H-benzimidazol-1-yl)benzamide], the Ki rises from ≤ 10 nM to > 100 nM. The first binds more tightly here.

First: Cc1nc2ccccc2n1-c1ccc(C(=O)N(C)C2CCN(C3CCC3)CC2)cc1 [Example 34, N-(1-cyclobutylpiperidin-4-yl)-N-methyl-4-(2-methyl-1H-benzimidazol-1-yl)benzamide]
Second: Cc1nc2ccccc2n1Cc1ccc(C(=O)N(C)C2CCN(C3CCC3)CC2)cc1 [Example 47, N-(1-cyclobutylpiperidin-4-yl)-N-methyl-4-[(2-methyl-1H-benzimidazol-1-yl)methyl]benzamide]
The Ki of the first is lower: 10.1 to 50 nM for the first, > 100 nM for the second.

Cc1nc2ccccc2n1Cc1ccc(C(=O)N(C)[C@@H]2CCNC2)cc1 [Example 35, N-Methyl-4-[(2-methylbenzimidazol-1-yl)methyl]-N—(R)-pyrrolidin-3-yl-benzamide Hydrochloride] and CN(C(=O)c1ccc(Cn2cnc3ccccc32)cc1)[C@@H]1CCNC1 [Example 36, (R)-4-((1H-benzo[d]imidazol-1-yl)methyl)-N-methyl-N-(pyrrolidin-3-yl)benzamide Hydrochloride] cannot be ordered by Ki: > 100 nM for the first, > 100 nM for the second.

First: Cc1nc2ccccc2n1Cc1ccc(C(=O)N(C)[C@@H]2CCN(C3CCCCC3)C2)cc1 [Example 40, N-[(3R)-1-cyclohexylpyrrolidin-3-yl]-N-methyl-4-[(2-methyl-1H-benzimidazol-1-yl)methyl]benzamide]
Second: Cc1nc2ccccc2n1Cc1ccc(C(=O)N(C)C2CCN(C3CCCC3)CC2)cc1 [Example 48, N-(1-cyclopentylpiperidin-4-yl)-N-methyl-4-[(2-methyl-1H-benzimidazol-1-yl)methyl]benzamide]
The Ki of the first is lower: 10.1 to 50 nM for the first, > 100 nM for the second. The first binds more tightly here.

Cc1nc2ccccc2n1Cc1ccc(C(=O)N(C)C2CCN(C(C)C)CC2)cc1 [Example 46, N-(1-isopropylpiperidin-4-yl)-N-methyl-4-[(2-methyl-1H-benzimidazol-1-yl)methyl]benzamide] and CC(C)N1CCC(N(C)C(=O)c2ccc(Cn3cnc4ccccc43)cc2)CC1 [Example 49, 4-(1H-benzimidazol-1-ylmethyl)-N-(1-isopropylpiperidin-4-yl)-N-methylbenzamide] fall in the same range of Ki: 50.1 to 100 nM for the first, 50.1 to 100 nM for the second.

CN(C(=O)c1ccc(Cn2cnc3ccccc32)cc1)C1CCN(C2CCC2)CC1 [Example 50, 4-(1H-benzimidazol-1-ylmethyl)-N-(1-cyclobutylpiperidin-4-yl)-N-methylbenzamide] and CN(C(=O)c1ccc(Cn2cnc3ccccc32)cc1)C1CCN(C2CCCC2)CC1 [Example 51, 4-(1H-benzimidazol-1-ylmethyl)-N-(1-cyclopentylpiperidin-4-yl)-N-methylbenzamide] cannot be ordered by Ki: > 100 nM for the first, > 100 nM for the second.

Cc1nc2cc(C#N)ccc2n1-c1ccc(C(=O)N(C)[C@@H]2CCN(C(C)C)C2)cc1 [Example 54, 4-(5-cyano-2-methyl-1H-benzimidazol-1-yl)-N-[(3R)-1-isopropylpyrrolidin-3-yl]-N-methylbenzamide] and Cc1nc2cc(C#N)ccc2n1-c1ccc(C(=O)N(C)[C@@H]2CCN(C3CCC3)C2)cc1 [Example 55, 4-(5-cyano-2-methyl-1H-benzimidazol-1-yl)-N-[(3R)-1-cyclobutylpyrrolidin-3-yl]-N-methylbenzamide] cannot be ordered by Ki: ≤ 10 nM for the first, ≤ 10 nM for the second.

Source: patent US20080293771A1, “AZACYCLYLBENZAMIDE DERIVATIVES AS HISTAMINE-3 ANTAGONISTS” (Wyeth, priority 2007, published 2008)
